Data taken from ChEMBL document CHEMBL1132563, “Three-dimensional quantitative structure-activity relationship of interleukin 1-beta converting enzyme inhibitors: A comparative molecular field analysis study” (J Med Chem, 1999).

Each molecule was assayed against T1, Caspase-1 (Homo sapiens) (UniProt P29466) (assay: Inhibitory activity against human IL-1 beta converting enzyme from monocytic THP-1 cell line, activity expressed as the logarithm of the second order rate constant for inactivation).
T1 sequence (whole entry): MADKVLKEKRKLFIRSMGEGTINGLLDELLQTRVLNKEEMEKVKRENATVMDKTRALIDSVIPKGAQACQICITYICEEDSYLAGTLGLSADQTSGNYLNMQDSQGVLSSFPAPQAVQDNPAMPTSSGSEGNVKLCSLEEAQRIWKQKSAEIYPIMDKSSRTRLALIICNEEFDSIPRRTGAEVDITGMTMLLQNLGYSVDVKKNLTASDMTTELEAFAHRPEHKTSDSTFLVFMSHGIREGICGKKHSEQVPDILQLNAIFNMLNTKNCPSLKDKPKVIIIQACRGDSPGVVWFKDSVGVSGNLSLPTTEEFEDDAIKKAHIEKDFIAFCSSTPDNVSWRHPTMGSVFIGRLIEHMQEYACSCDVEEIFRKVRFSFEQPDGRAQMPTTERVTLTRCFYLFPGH
Assay type: cell-based

| SMILES | Activity |
| --- | --- |
| Cc1cccc(C)c1C(=O)OCC(=O)[C@H](CC(=O)O)NC(=O)[C@H](C)NC(=O)[C@@H](NC(=O)CCc1ccccc1)C(C)C | 6.08 |
| CN(C)CCCCCC(=O)Nc1cnc(-c2ccc(F)cc2)n(CC(=O)NC(CC(=O)O)C(=O)COC(=O)c2c(Cl)cccc2Cl)c1=O (centres undefined) | 4.95 |
| CC(C)[C@H](NC(=O)OCc1ccccc1)C(=O)N[C@@H](C)C(=O)N(C)[C@@H](CC(=O)O)C(=O)COc1cc(C(F)(F)F)nn1-c1ccccc1 | 2.48 |
| O=C(O)CC(NC(=O)Cn1c(-c2ccc(F)cc2)ncc(NC(=O)OCc2ccccc2)c1=O)C(=O)COc1cc(C(F)(F)F)nn1-c1ccccc1 (centres undefined) | 5.2 |
| O=C(O)C[C@H](NC(=O)OCc1ccccc1)C(=O)COc1cc(C(F)(F)F)nn1-c1ccccc1 | 4.04 |
| CC(C)[C@H](NC(=O)OCc1ccccc1)C(=O)N[C@@H](C)C(=O)N[C@@H](CC(=O)O)C(=O)COP(=O)(Oc1ccc(Cl)cc1)Oc1ccc(Cl)cc1 | 5.36 |
| C=CCOC(=O)N[C@@H](CC(=O)O)C(=O)COC(=O)c1c(O)cccc1O | 3.43 |
| CC(C)[C@H](NC(=O)OCc1ccccc1)C(=O)N1CCC[C@H]1C(=O)N[C@@H](CC(=O)O)C(=O)COc1cc(C(F)(F)F)nn1-c1ccccc1 | 5.06 |
| O=C(O)CC(NC(=O)Cn1c(-c2ccc(F)cc2)ncc(NC(=O)c2ccco2)c1=O)C(=O)COC(=O)c1c(Cl)cccc1Cl (centres undefined) | 4.66 |
| CC(C)[C@H](NC(=O)CCc1ccccc1)C(=O)N[C@@H](C)C(=O)N[C@@H](CC(=O)O)C(=O)COC(=O)c1ccccc1 | 5.45 |
| CC(C)[C@H](NC(=O)CCc1ccccc1)C(=O)N[C@@H](C)C(=O)N[C@@H](CC(=O)O)C(=O)COC(=O)c1ccc([N+](=O)[O-])cc1 | 6.11 |
| Cc1ncc(NC(=O)OCc2ccccc2)c(=O)n1CC(=O)NC(CC(=O)O)C(=O)COc1cc(C(F)(F)F)nn1-c1ccccc1 (centres undefined) | 4.98 |
| O=C(O)C[C@H](NC(=O)OCc1ccccc1)C(=O)COP(=O)(Oc1ccccc1)Oc1ccccc1 | 4.07 |
| CC(C)[C@H](NC(=O)OCc1ccccc1)C(=O)N[C@@H](CC(=O)O)C(=O)COP(=O)(Oc1ccc(Cl)cc1)Oc1ccc(Cl)cc1 | 4.89 |
| CC(C)[C@H](NC(=O)CCc1ccccc1)C(=O)N[C@@H](C)C(=O)N[C@@H](CC(=O)O)C(=O)COC(=O)c1c(F)c(F)c(F)c(F)c1F | 6.04 |
| CC(C)[C@H](NC(=O)CCc1ccccc1)C(=O)N[C@@H](C)C(=O)N[C@@H](CC(=O)O)C(=O)COC(=O)c1c(C(F)(F)F)cccc1C(F)(F)F | 5.95 |
| CC(C)[C@@H](C(=O)N[C@@H](C)C(=O)N[C@@H](CC(=O)O)C(=O)COc1cc(C(F)(F)F)nn1-c1ccccc1)N(C)C(=O)OCc1ccccc1 | 3.93 |
| CC(=O)N[C@@H](Cc1ccc(O)cc1)C(=O)N[C@H](C(=O)N[C@@H](C)C(=O)N[C@@H](CC(=O)O)C(=O)COC(=O)c1c(C)cccc1C)C(C)C | 6.04 |
| CC(=O)N[C@@H](Cc1ccc(O)cc1)C(=O)N[C@H](C(=O)N[C@@H](C)C(=O)N[C@@H](CC(=O)O)C(=O)COC(=O)c1c(C(F)(F)F)cccc1C(F)(F)F)C(C)C | 5.98 |
| CC(C)[C@H](NC(=O)OCc1ccccc1)C(=O)N[C@@H](CC(=O)O)C(=O)COP(=O)(Oc1ccccc1)Oc1ccccc1 | 4.7 |
| O=C(O)CC(NC(=O)Cn1c(-c2ccc(F)cc2)ncc(NS(=O)(=O)c2ccccc2)c1=O)C(=O)COC(=O)c1c(Cl)cccc1Cl (centres undefined) | 4.95 |
| CC(C)[C@H](NC(=O)OCc1ccccc1)C(=O)N[C@@H](CC(=O)O)C(=O)COc1cc(C(F)(F)F)nn1-c1ccccc1 | 4.3 |

| SMILES | Activity |
| --- | --- |
| CC(C)[C@H](NC(=O)OCc1ccccc1)C(=O)N[C@@H](C)C(=O)N[C@@H](CC(=O)O)C(=O)COc1cc(C(F)(F)F)nn1-c1ccccc1 | 5.45 |
| CC(C)[C@H](NC(=O)OCc1ccccc1)C(=O)N[C@@H](C)C(=O)N[C@@H](CC(=O)O)C(=O)COC(=O)c1c(Cl)cccc1Cl | 5.61 |
| CC(C)[C@H](NC(=O)OCc1ccccc1)C(=O)N[C@@H](C)C(=O)N[C@@H](CC(=O)O)C(=O)COP(=O)(Oc1ccccc1)Oc1ccccc1 | 5.07 |
| CC(C)[C@H](NC(=O)[C@@H]1CCCN1C(=O)OCc1ccccc1)C(=O)N[C@@H](CC(=O)O)C(=O)COc1cc(C(F)(F)F)nn1-c1ccccc1 | 2.48 |
| CC(C)[C@H](NC(=O)OCc1ccccc1)C(=O)N(C)[C@@H](C)C(=O)N[C@@H](CC(=O)O)C(=O)COc1cc(C(F)(F)F)nn1-c1ccccc1 | 5.37 |
| C[C@H](NC(=O)[C@H](Cc1ccccc1)NC(=O)OCc1ccccc1)C(=O)COC(=O)c1c(Cl)cccc1Cl | 2.7 |
| C[C@H](NC(=O)[C@H](Cc1ccccc1)NC(=O)OCc1ccccc1)C(=O)COc1cc(C(F)(F)F)nn1-c1ccccc1 | 2.7 |
| O=C(O)CC(NC(=O)Cn1c(-c2ccc(F)cc2)ncc(NC(=O)NCc2ccccc2)c1=O)C(=O)COC(=O)c1c(Cl)cccc1Cl (centres undefined) | 5.17 |
| C[C@H](NC(=O)[C@H](Cc1ccccc1)NC(=O)OCc1ccccc1)C(=O)COP(=O)(Oc1ccccc1)Oc1ccccc1 | 2.7 |
| CC(C)[C@H](NC(=O)CCc1ccccc1)C(=O)N[C@@H](C)C(=O)N[C@@H](CC(=O)O)C(=O)COC(=O)c1c(O)cccc1O | 5.85 |
| O=C(O)CC(NC(=O)Cn1c(-c2cccs2)ncc(NC(=O)OCc2ccccc2)c1=O)C(=O)COC(=O)c1c(Cl)cccc1Cl (centres undefined) | 5.43 |
| C=CCOC(=O)N[C@@H](CC(=O)O)C(=O)COC(=O)c1c(F)c(F)c(F)c(F)c1F | 2.99 |
| CC(C)C[C@H](NC(=O)OCc1ccccc1)C(=O)N[C@@H](Cc1ccccc1)C(=O)COP(=O)(Oc1ccccc1)Oc1ccccc1 | 2.7 |
| C=CCOC(=O)N[C@@H](CC(=O)O)C(=O)COC(=O)c1c(C(F)(F)F)cccc1C(F)(F)F | 3.72 |
| C=CCOC(=O)N[C@@H](CC(=O)O)C(=O)COC(=O)c1c(C)cccc1C | 2.91 |
| C=CCOC(=O)N[C@@H](CC(=O)O)C(=O)COC(=O)c1ccc([N+](=O)[O-])cc1 | 1.79 |
| Nc1cnc(-c2ccc(F)cc2)n(CC(=O)NC(CC(=O)O)C(=O)COC(=O)c2c(Cl)cccc2Cl)c1=O (centres undefined) | 4.56 |
| O=C(O)CC(NC(=O)Cn1c(-c2ccc(F)cc2)ncc(NC(=O)OCc2ccccc2)c1=O)C(=O)COC(=O)c1c(Cl)cccc1Cl (centres undefined) | 5.43 |
| O=C(O)CC(NC(=O)Cn1c(-c2ccc(F)cc2)ncc(NC(=O)OCc2ccccc2)c1=O)C(=O)COP(=O)(Oc1ccccc1)Oc1ccccc1 (centres undefined) | 5.16 |
| CC(C)[C@H](NC(=O)OCc1ccccc1)C(=O)N1CCCCC1C(=O)N[C@H](CC(=O)O)C(=O)COc1cc(C(F)(F)F)nn1-c1ccccc1 (some centres undefined) | 5.43 |
| O=C(O)CC(NC(=O)Cn1c(-c2cccnc2)ncc(NC(=O)OCc2ccccc2)c1=O)C(=O)COc1cc(C(F)(F)F)nn1-c1ccccc1 (centres undefined) | 5.16 |
| O=C(O)C[C@H](NC(=O)OCc1ccccc1)C(=O)COC(=O)c1c(Cl)cccc1Cl | 3.85 |
